pKi: −log10 of the molar value.
Key:
Format in all cases: biochemical
[1] = molecular target: T1, ROCK1 (Homo sapiens, UniProt Q13464); assay: In vitro inhibitory activity assay ROCK1 (Method A, ADP-Glo, 10 μM ATP); details: ATP 10 μM, read-out: Method A ROCK 1 (Ki)
Procedure, shortened: (§1)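 Kinase reaction at 25 °C with 2.5 μM myelin basic protein, 10 μM ATP, 40 mM Tris pH 7.5, 20 mM MgCl2, 1% DMSO; enzyme and compound preincubated 30 min, reaction run 1 h, ADP measured by ADP-Glo luminescence. IC50 from variable-slope sigmoidal fit (0–100% fixed); Ki via Cheng-Prusoff.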

[2] = molecular target: T2, ROCK2 (Homo sapiens, UniProt O75116); assay: In vitro inhibitory activity assay ROCK2 (Method A, ADP-Glo, 10 μM ATP); details: ATP 10 μM, read-out: Method A ROCK 2 (Ki)
Procedure, shortened: as §1

[3] = molecular target: T1, ROCK1; assay: In vitro inhibitory activity assay ROCK1 (Method B, ADP-Glo, 200 μM ATP); details: ATP 200 μM, read-out: Method B ROCK 1 (Ki)
Method: (§2) In Vitro Inhibitory Activity Assay Description ROCK1 and ROCK2
(§3) The effectiveness of compounds of the present invention to inhibit Rho kinase activity can be determined in a 10 μl assay containing 40 mM Tris pH7.5, 20 mM MgCl2 0.1 mg/mL BSA, 50 μM DTT and 2.5 μM peptide substrate (Myelin Basic Protein) using an ADP-Glo kit (Promega). Compounds were dissolved in DMSO such that the final concentration of DMSO was 1% in the assay. All reactions/incubations are performed at 25° C. Compound (2 μL) and either Rho kinase 1 or 2 (4 μl) were mixed and incubated for 30 min. Reactions were initiated by addition of ATP (4 μL) such that the final concentration of ATP in the assay was 200 μM. After a 1 hour incubation […] of ADP-Glo Reagent was added and after a further 45 minute incubation 20 μL of Kinase Detection Buffer was added and the mixture incubated for a further 30 minutes. The luminescent signal was measured on a luminometer. […] Compounds were tested in dose-response format and the inhibition of kinase activity was calculated at each concentration of compound. To determine the IC50 (concentration of compound required to inhibit 50% of the enzyme activity) data were fit to a plot of % inhibition vs Log10 compound concentration using a sigmoidal fit with a variable slope and fixing the maximum to 100% and the minimum to 0%. To determine the Ki values the Cheng-Prusoff equation was utilized ([…].

[4] = molecular target: T2, ROCK2; assay: In vitro inhibitory activity assay ROCK2 (Method B, ADP-Glo, 200 μM ATP); details: ATP 200 μM, read-out: Method B ROCK 2 (Ki)
Method: as §2, §3

[5] = molecular target: PKA (Homo sapiens, UniProt P17612); assay: In vitro inhibitory activity assay for PKA (ADP-Glo), reported as selectivity ratio vs ROCK2; details: Ki PKA divided by Ki ROCK2 (method B)
Method: In vitro inhibitory activity assay description for PKA
The effectiveness of compounds of the present invention to inhibit PKA activity can be determined in a […], assay containing 40 mM Tris pH7.5, 20 mM MgCl2 0.1 mg/mL BSA, 50 μM DTT and 260 μM peptide substrate (kemptide) using an ADP-Glo kit (Promega). Compounds were dissolved in DMSO such that the final concentration of DMSO was 1% in the assay. All reactions/incubations are performed at 25° C. Compound and PKA enzyme (6 μl) were mixed and incubated for 30 min. Reactions were initiated by addition of ATP (4 μL) such that the final concentration of ATP in the assay was 10 μM. After a 30 minute incubation 10 μL of ADP-Glo Reagent was added and after a further 1 hour incubation 20 μL of Kinase Detection Buffer was added and the mixture incubated for a further 45 minutes. The luminescent signal was measured on a luminometer. […] Compounds were tested in dose-response format and the inhibition of kinase activity was calculated at each concentration of compound. To determine the IC50 (concentration of compound required to inhibit 50% of the enzyme activity) data were fit to a plot of % inhibition vs Log10 compound concentration using a sigmoidal fit with a variable slope and fixing the maximum to 100% and the minimum to 0%. To determine the Ki values the Cheng-Prusoff equation was utilized (Ki=IC50/(1+[S]/Km).
In vitro inhibitory activities for PKA were reported as selectivity ratio vs. ROCK2. Selectivity ratio PKA/ROCK2 was calculated by dividing the Ki value for PKA by Ki value of ROCK2 (method B) and reported into table 1.

T2 sequence (O75116 whole entry): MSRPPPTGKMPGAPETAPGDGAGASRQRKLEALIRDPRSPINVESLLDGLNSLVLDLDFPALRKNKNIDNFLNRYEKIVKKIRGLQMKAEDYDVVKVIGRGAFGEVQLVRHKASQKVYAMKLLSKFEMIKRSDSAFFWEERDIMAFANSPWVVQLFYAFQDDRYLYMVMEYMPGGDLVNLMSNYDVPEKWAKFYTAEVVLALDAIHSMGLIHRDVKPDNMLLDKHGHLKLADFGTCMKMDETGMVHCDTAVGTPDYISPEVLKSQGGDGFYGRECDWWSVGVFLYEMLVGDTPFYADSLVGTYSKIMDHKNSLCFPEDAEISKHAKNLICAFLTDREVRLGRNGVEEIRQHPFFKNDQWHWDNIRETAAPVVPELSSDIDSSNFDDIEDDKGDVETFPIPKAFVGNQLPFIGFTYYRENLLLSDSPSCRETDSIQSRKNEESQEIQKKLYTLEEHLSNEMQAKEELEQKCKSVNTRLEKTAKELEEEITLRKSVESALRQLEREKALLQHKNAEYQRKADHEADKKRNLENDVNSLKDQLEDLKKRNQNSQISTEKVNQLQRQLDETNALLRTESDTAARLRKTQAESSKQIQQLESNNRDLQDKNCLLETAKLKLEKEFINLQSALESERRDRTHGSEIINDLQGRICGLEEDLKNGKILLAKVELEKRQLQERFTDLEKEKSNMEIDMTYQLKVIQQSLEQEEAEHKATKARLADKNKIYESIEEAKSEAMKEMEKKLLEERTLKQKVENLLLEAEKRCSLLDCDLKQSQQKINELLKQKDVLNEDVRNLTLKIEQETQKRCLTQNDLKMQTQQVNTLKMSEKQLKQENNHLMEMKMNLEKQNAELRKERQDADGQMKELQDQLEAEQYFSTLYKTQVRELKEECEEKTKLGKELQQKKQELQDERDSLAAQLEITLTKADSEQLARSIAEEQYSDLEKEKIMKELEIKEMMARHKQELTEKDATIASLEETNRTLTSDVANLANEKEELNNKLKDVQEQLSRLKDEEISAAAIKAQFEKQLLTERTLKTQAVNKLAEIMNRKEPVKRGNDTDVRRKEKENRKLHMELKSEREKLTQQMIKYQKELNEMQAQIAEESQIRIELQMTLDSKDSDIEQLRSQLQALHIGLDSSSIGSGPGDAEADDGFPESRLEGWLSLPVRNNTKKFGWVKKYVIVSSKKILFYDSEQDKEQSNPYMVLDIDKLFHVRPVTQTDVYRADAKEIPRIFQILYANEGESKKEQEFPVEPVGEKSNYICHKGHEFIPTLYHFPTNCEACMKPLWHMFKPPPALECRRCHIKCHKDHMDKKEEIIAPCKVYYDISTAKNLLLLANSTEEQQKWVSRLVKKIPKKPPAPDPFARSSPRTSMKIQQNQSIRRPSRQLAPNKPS
T1 sequence (Q13464 whole entry): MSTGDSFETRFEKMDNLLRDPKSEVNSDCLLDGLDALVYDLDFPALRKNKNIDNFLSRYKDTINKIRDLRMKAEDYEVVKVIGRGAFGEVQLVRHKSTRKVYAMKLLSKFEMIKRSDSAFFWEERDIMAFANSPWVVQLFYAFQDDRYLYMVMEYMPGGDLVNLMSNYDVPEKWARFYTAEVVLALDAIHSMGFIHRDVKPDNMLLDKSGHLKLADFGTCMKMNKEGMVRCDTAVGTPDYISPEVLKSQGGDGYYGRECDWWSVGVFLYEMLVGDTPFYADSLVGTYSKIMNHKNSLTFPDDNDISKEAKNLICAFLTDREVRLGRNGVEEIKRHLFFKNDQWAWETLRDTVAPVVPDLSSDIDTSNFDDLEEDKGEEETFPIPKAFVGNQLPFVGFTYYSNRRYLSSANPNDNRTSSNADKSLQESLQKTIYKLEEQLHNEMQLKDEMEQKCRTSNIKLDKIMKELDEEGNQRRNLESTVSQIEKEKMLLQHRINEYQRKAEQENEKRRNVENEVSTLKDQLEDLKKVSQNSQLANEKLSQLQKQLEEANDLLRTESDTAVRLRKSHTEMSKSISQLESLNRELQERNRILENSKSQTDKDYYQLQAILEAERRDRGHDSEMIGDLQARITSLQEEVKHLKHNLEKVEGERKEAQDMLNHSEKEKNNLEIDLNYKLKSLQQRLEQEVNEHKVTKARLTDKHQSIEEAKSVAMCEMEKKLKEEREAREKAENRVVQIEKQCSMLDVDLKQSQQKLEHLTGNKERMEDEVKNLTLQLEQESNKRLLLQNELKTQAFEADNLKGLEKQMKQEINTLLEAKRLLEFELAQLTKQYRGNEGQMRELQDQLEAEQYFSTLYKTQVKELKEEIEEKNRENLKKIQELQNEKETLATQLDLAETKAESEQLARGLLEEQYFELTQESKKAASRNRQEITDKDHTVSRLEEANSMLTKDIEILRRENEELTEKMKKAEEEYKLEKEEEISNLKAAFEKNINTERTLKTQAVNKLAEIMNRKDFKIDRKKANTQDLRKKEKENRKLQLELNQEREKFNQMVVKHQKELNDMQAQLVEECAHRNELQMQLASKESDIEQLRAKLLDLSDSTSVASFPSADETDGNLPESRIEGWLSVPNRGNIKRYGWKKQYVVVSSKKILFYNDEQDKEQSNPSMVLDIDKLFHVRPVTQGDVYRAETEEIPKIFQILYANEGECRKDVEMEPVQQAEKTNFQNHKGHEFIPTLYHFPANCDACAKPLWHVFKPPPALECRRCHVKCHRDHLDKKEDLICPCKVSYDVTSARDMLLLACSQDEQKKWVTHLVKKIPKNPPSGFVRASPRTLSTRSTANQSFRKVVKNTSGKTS

pKi [1]	pKi [2]	pKi [3]	pKi [4]	Ratio Ki PKA/ROCK2 [5]	Compound
≥ 8.52	≥ 8.52	≥ 8.52	≥ 8.52	*** (ratio≥10)	CN(C)C1CCc2nc(NC(=O)c3cccc(CNc4ncc(-c5cn[nH]c5)c5c4CCO5)c3)sc2C1 (stereo not shown) [Example 33, 3-(((7-(1H-Pyrazol-4-yl)-2,3-dihydrofuro[3,2-c]pyridin-4-yl)amino)methyl)-N-(6-(dimethylamino)-4,5,6,7-tetrahydrobenzo[d]thiazol-2-yl)benzamide]
≥ 8.52	≥ 8.52	≥ 8.52	≥ 8.52	*** (ratio≥10)	O=C(Nc1nc2c(s1)CC(NC1COC1)CC2)c1cccc(CNc2ncc(-c3cn[nH]c3)c3c2CCO3)c1 (stereo not shown) [Example 34, 3-(((7-(1H-pyrazol-4-yl)-2,3-dihydrofuro[3,2-c]pyridin-4-yl)amino)methyl)-N-(6-(oxetan-3-ylamino)-4,5,6,7-tetrahydrobenzo[d]thiazol-2-yl)benzamide]

Source: patent US20240082223A1, “DIHYDROFUROPYRIDINE DERIVATIVES AS RHO- KINASE INHIBITORS” (CHIESI FARMACEUTICI S.P.A., priority 2020, published 2024)
